Data set [1] has as its system mouse neuroblastoma (Neuro2a) cells. The data set is described as follows: Cell viability by WST-8 method after addition of incubated reaction solutions (Example B6). It counts as cell-based. The following applies: reaction solution containing only the aggregation inhibiting peptide. As for the experimental part: Then, reaction solutions with the following compositions were prepared using these solutions. The reaction solutions were incubated at 37° C. for 24 hours.
Meanwhile, 0.15 mL of medium per well was placed in the wells of a 96-well plate, and mouse neuroblastoma (Neuro2a) cells were seeded to be 2.66×10^4 cells per well. After incubation at 37° C. for 24 hours, 50 μL of each reaction solution after the incubation was added per well and further incubated at 37° C. for 24 hours. The cell viability (%) was then measured for each well by the WST-8 method.

Data set [2] in a line: Solubility in aqueous solvent, visual check for precipitation. It counts as physicochemical. The following applies: room temperature. The method, then:
For each of the example peptides (Syn FPs) and the comparative example peptides, a 1 mmol/L peptide solution was prepared using MilliQ water as an aqueous solvent.
Each peptide was dissolved in a saline solution to prepare a 1 mmol/L sample solution.

The target in data set [3] is Syn61-84 (Homo sapiens, UniProt P37840). In words: Inhibition of aggregate formation of Syn61-84, ThT fluorescence (Example B2). It counts as biochemical. As for the experimental part:
Specifically, reaction solutions with the following compositions were prepared and each dispensed into wells such that the amount of the reaction solution per well was 200 μL. In the following compositions, X mmol/L peptides (aggregation inhibiting peptide solutions: YS-11 and LYZA-3) were prepared using MilliQ water, and the concentration X mmol/L was set to 1 μmol/L, […], and 100 μmol/L in the reaction solutions. […] After the reaction solutions were incubated at 37° C. for 24 hours, 10 μL of 2 mmol/L ThT was added per well, and the fluorescence intensity was measured using a measurement device (product name: Cytation5, manufactured by BioTek) (n=3). The measurement wavelengths were set such that the excitation wavelength (ex) was 444 nm and the fluorescence wavelength (em) was 480 nm. As a control, a reaction solution to which water was added instead of the aggregation inhibiting peptides (YS-11 and LYZA-3) was also measured in the same way.

Data set [4] addresses Syn61-84 aggregates (Homo sapiens, UniProt P37840). The data set is described as follows: Dissociation of Syn61-84 aggregates, ThT fluorescence (Example B3). The following applies: peptide 0.1, 1, 10, 100 μmol/L; 0.1 mM preformed Syn61-84 aggregates; 37° C. 24 hours. The format is biochemical. The method, then: Then, reaction solutions with the following compositions were prepared and each dispensed into wells such that the amount of the reaction solution per well was 200 μL, and, after the reaction solutions were incubated at 37° C. for 24 hours, 10 μL of 2 mmol/L ThT was added per well, and the fluorescence intensity was measured using a measurement device (product name Cytation5, manufactured by BioTek) (n=3). The measurement wavelengths were set such that the excitation wavelength (ex) was 444 nm and the fluorescence wavelength (em) was 480 nm. In the following compositions, X mmol/L peptides (aggregation inhibiting peptides: YS-11 and LYZA-3) were prepared using MilliQ water, and the concentration X mmol/L was set to 0.1 μmol/L, 1 μmol/L, 10 μmol/L, and 100 μmol/L in the reaction solutions. As a control, a reaction solution to which water was added instead of the peptide YS-11 and the peptide LYZA-3 was also measured in the same way.

Data set [5] relates to Parkinson's disease model mice. The data set is described as follows: Rota-Rod test in Parkinson's disease model mice produced with Syn61-84 (Example B4). The format is in vivo. As for the experimental part:
(§1) As a control, a saline solution (Saline) was used.
(§2) The aggregation inhibiting peptide was not administered to the Saline administration group (n=3).
(§3) The short-term memory was evaluated through a Y-maze test on Day 14, Day 56, and Day 74, and the motor function was evaluated through a Rota-Rod test on Day 21, Day 55, Day 63, and Day 70. […] The Rota-Rod test was conducted using a rotor-rod device for mice (product name: MK-670, manufactured by Muromachi Kikai Co., Ltd.), with the rotational speed of the rotor set at 10 or 20 rpm, and the time until a mouse on the rotating rotor fell was measured.

Data set [6] concerns Parkinson's disease model mice. The data set is described as follows: Y-maze test in Parkinson's disease model mice produced with Syn61-84 (Example B4). It counts as in vivo. The following applies: Day 74; 4 μL of 1 mmol/L inhibiting peptide on Day 56 to Syn61-84 mice. The method, then:
as §1, §2, §3

Ends that are not written are not given here.

RETLVYLTHLD [YS-11]: in data set [1], the “cell viability (control taken as 100%)” value is “no effect on the cell viability”.

With α-synuclein [full-length Syn], in data set [2] (1 mmol/L in MilliQ water), the “solubility (visual precipitation)” value is given as “precipitation of Syn was immediately visible”.

Take “VVTGVTAVAQKTVEG [Syn70-84, reference compound]”: the “solubility (visual precipitation)” value in data set [2] (1 mmol/L in saline solution) was “No precipitation”.

For the substance “YSNFNTDY (aggregation inhibitor peptide) [LYZA-3]”, the “aggregation inhibition ability compared at the same concentration (formation of aggregates)” value in data set [3] (comparison between FIGS. 4(A) and 4(B)) is “greater aggregation inhibition ability than the peptide YS-11”. Also, in data set [3] (peptide 1 μmol/L, 100 μmol/L, 0.1 mM Syn61-84, 37° C. 24 hours), the “fluorescence intensity (ThT) compared with the control (Syn61-84)” value is reported as “decreased in a concentration-dependent manner”. Also, in data set [4], the “fluorescence intensity (ThT) compared with the control (Syn61-84), dissociation of aggregates” value is listed as “fluorescence intensity decreased”. In addition, in data set [5] (10 rpm, RR-3 and RR-4 after inhibiting peptide on Day 56), the “spent time (Rota-Rod) at 10 rpm” value is on record as “significant increase”. Further, the “spent time (Rota-Rod) at 10 rpm versus Saline administration group” value in data set [5] (10 rpm, RR-4) is listed as “longer than that of the Saline administration group”. For the same substance, the “spent time (Rota-Rod)” value in data set [5] (RR-3 and RR-4, after inhibiting peptide on Day 56 to Syn61-84 mice) is given as “increase in the spent time”. For the same substance, the “alternation rate (Y-maze) compared with Saline administration group” value in data set [6] is given as “increase in the alternation rate”.

(Values after patent US20240238366A1, “alpha-SYNUCLEIN AGGREGATION INHIBITOR, PHARMACEUTICAL COMPOSITION FOR alpha-SYNUCLEIN DISEASE, AND USE THEREOF” (O-FORCE CO., LTD., priority 2021, published 2024).)
